{"source": "patent US9757370B2", "about": "“Opsin-binding ligands, compositions and methods of use” (priority 2011, dated 2017)", "system": "P23H opsin", "test": "Rhodopsin purification and regeneration: pigment formation from P23H opsin after compound treatment of P23H cells", "details": "for Fold Increase Over Control (480-500 nm absorbance): P23H cells treated 48 hours, regenerated with 9-cis-retinal (20 μM), fold increase over the DMSO control", "data": [{"molecule": "CC(=O)/C=C/C1=C(C)CCCC1(C)C", "note": "[β-ionone, reference compound]", "values": [{"measurement": "Fold Increase Over Control (480-500 nm absorbance)", "setting": "20 μM", "result": 2.4, "unit": "fold"}, {"measurement": "regeneration of 500 nm absorbing pigment upon treatment with retinal (FIG. 1)", "setting": "P23H opsin treated with 20 μM during mutant protein production, relative to vehicle (DMSO) alone", "result": "increase in regeneration of 500 nm absorbing pigment"}]}, {"molecule": "C[C@H]1CCCC(C)(C)[C@@H]1[C@@H](O)c1ccc2c(c1)CCN(C(N)=O)C2", "note": "[Compound 5, 6-((R)-hydroxy((1R,6S)-2,2,6-trimethylcyclohexyl)methyl)-3,4-dihydroisoquinoline-2(1H)-carboxamide]", "values": [{"measurement": "Fold Increase Over Control (480-500 nm absorbance)", "setting": "10 μM", "result": 1.9, "unit": "fold"}]}, {"molecule": "C[C@H]1CCCC(C)(C)[C@@H]1[C@H](O)c1ccc2c(c1)CCN(C(N)=O)C2", "note": "[Compound 3, 6-((S)-hydroxy((1R,6S)-2,2,6-trimethylcyclohexyl)methyl)-3,4-dihydroisoquinoline-2(1H)-carboxamide]", "values": [{"measurement": "Fold Increase Over Control (480-500 nm absorbance)", "setting": "10 μM", "result": 1.5, "unit": "fold"}]}, {"molecule": "CC1=C(C(O)c2ccc3c(c2)CCN(C(N)=O)C3)C(C)(C)CCC1", "note": "(centres unmarked) [Compound 2, 6-(hydroxy(2,6,6-trimethylcyclohex-1-enyl)methyl)-3,4-dihydroisoquinoline-2(1H)-carboxamide]", "values": [{"measurement": "Fold Increase Over Control (480-500 nm absorbance)", "setting": "10 μM", "result": 2.5, "unit": "fold"}]}]}
